Measurements as given in patent publication US11541055B2, “Inhibitors of human immunodeficiency virus replication” (ViiV Healthcare UK (No. 5) LIMITED, priority 2018, dated 2023).
pEC50: −log10 of the molar value. Like-named read-outs stand apart in the source and are kept apart here.

Key:
Type in all cases: cell-based
[1] = system: recombinant NL4-3 virus (Renilla luciferase) in MT-2 cells; test: HIV cell culture assay (antiviral activity, luciferase readout)
Method in brief: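 MT-2 cells were infected with recombinant NL4-3 virus carrying Renilla luciferase in place of part of nef. Cells were cultured 4–5 days with serially diluted compound, and luciferase was measured with a live-cell substrate. EC50 was calculated from the median effect equation.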

[2] = system: uninfected MT2 cells; test: Compound cytotoxicity, XTT-based colorimetric assay; conditions: day 4, XTT
Method in brief: (§1)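 Run under the antiviral-assay protocol but without virus. Viability was read on day 4 and CC50 values were derived from the readout.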

[3] = as above; conditions: human; uninfected MT2 cells, day 4, XTT
Method in brief: as §1

| Structure (SMILES) | pEC50 ([1]; MT-2 cells infected for 4-5 days with recombinant NL4-3 Renilla luciferase virus, luciferase activity, read-out: EC50) | CC50 [2] | pEC50 ([1]; Renilla, NL43) | CC50 at 4 days [3] |
| --- | --- | --- | --- | --- |
| CC(C)(C)S(=O)(=O)c1cccc(-c2ccc3c(=O)n(-c4ccc(Cl)c5c(NS(=O)(=O)C6CC6)nn(CC(F)F)c45)c([C@H](Cc4cc(F)cc(F)c4)NC(=O)Cn4nc(C(F)F)c5c4C(F)(F)[C@@H]4C[C@H]54)nc3c2)c1 [Example 146, N-[(1S)-1-{3-[4-chloro-3-cyclopropanesulfonamido-1-(2,2-difluoroethyl)-1H-indazol-7-yl]-7-[3-(2-methylpropane-2-sulfonyl)phenyl]-4-oxo-3,4-dihydroquinazolin-2-yl}-2-(3,5-difluorophenyl)ethyl]-2-[(2S,4R)-9-(difluoromethyl)-5,5-difluoro-7,8-diazatricyclo[4.3.0.0^2,^4]nona-1(6),8-dien-7-yl]acetamide] | 9.41 | > 500 nM | – | – |
| Cc1cc(-c2ccc3c(=O)n(-c4ccc(Cl)c5c(NS(C)(=O)=O)nn(C)c45)c([C@H](Cc4cc(F)cc(F)c4)NC(=O)Cn4nc(C(F)F)c5c4C(F)(F)[C@@H]4C[C@H]54)nc3c2)nc(C)n1 (atropisomer, axis not shown; (P)) [Example 44, N—((S)-1-((3P)-3-(4-chloro-1-methyl-3-(methylsulfonamido)-1H-indazol-7-yl)-7-(2,6-dimethylpyrimidin-4-yl)-4-oxo-3,4-dihydroquinazolin-2-yl)-2-(3,5-difluorophenyl)ethyl)-2-((3bS,4aR)-3-(difluoromethyl)-5,5-difluoro-3b,4,4a,5-tetrahydro-1H-cyclopropa[3,4]cyclopenta[1,2-c]pyrazol-1-yl)acetamide] | – | – | 10.40 | > 500 nM |
| Cc1ncc(-c2ccc3c(=O)n(-c4ccc(Cl)c5c(NS(C)(=O)=O)nn(CC(F)F)c45)c([C@H](Cc4cc(F)cc(F)c4)NC(=O)Cn4nc(C(F)F)c5c4C(F)(F)[C@@H]4C[C@H]54)nc3c2)s1 (atropisomer, axis not shown) [Example 123, N-[(1S)-1-{3-[4-chloro-1-(2,2-difluoroethyl)-3-methanesulfonamido-1H-indazol-7-yl]-7-(2-methyl-1,3-thiazol-5-yl)-4-oxo-3,4-dihydroquinazolin-2-yl}-2-(3,5-difluorophenyl)ethyl]-2-[(2S,4R)-9-(difluoromethyl)-5,5-difluoro-7,8-diazatricyclo[4.3.0.0^2,^4]nona-1(6),8-dien-7-yl]acetamide] | – | – | 10.06 | > 500 nM |
| Cc1ccc(F)c(-c2ccc3c(=O)n(-c4ccc(Cl)c5c(NS(=O)(=O)C6CC6)nn(CC(F)F)c45)c([C@H](Cc4cc(F)cc(F)c4)NC(=O)Cn4nc(C(F)F)c5c4C(F)(F)[C@@H]4C[C@H]54)nc3c2)n1 (atropisomer, axis not shown) [Example 96, N-[(1S)-1-{3-[4-chloro-3-cyclopropanesulfonamido-1-(2,2-difluoroethyl)-1H-indazol-7-yl]-7-(3-fluoro-6-methylpyridin-2-yl)-4-oxo-3,4-dihydroquinazolin-2-yl}-2-(3,5-difluorophenyl)ethyl]-2-[(2S,4R)-9-(difluoromethyl)-5,5-difluoro-7,8-diazatricyclo[4.3.0.0^2,^4]nona-1(6),8-dien-7-yl]acetamide] | – | – | 9.62 | > 500 nM |
| Cc1nccc(-c2ccc3c(=O)n(-c4ccc(Cl)c5c(NS(C)(=O)=O)nn(CC(F)(F)F)c45)c([C@H](Cc4cc(F)cc(F)c4)NC(=O)Cn4nc(C(F)F)c5c4C(F)(F)[C@@H]4C[C@H]54)nc3c2)n1 (atropisomer, axis not shown) [Example 100, N-[(1S)-1-{3-[4-chloro-3-methanesulfonamido-1-(2,2,2-trifluoroethyl)-1H-indazol-7-yl]-7-(2-methylpyrimidin-4-yl)-4-oxo-3,4-dihydroquinazolin-2-yl}-2-(3,5-difluorophenyl)ethyl]-2-[(2S,4R)-9-(difluoromethyl)-5,5-difluoro-7,8-diazatricyclo[4.3.0.0^2,^4]nona-1(6),8-dien-7-yl]acetamide] | – | – | 10.38 | > 500 nM |
| CCc1cc(CC)nc(-c2ccc3c(=O)n(-c4ccc(Cl)c5c(NS(C)(=O)=O)nn(C)c45)c([C@H](Cc4cc(F)cc(F)c4)NC(=O)Cn4nc(C(F)F)c5c4C(F)(F)[C@@H]4C[C@H]54)nc3c2)n1 (atropisomer, axis not shown; (P)) [Example 38, N—((S)-1-((3P)-3-(4-chloro-1-methyl-3-(methylsulfonamido)-1H-indazol-7-yl)-7-(4,6-diethylpyrimidin-2-yl)-4-oxo-3,4-dihydroquinazolin-2-yl)-2-(3,5-difluorophenyl)ethyl)-2-((3bS,4aR)-3-(difluoromethyl)-5,5-difluoro-3b,4,4a,5-tetrahydro-1H-cyclopropa[3,4]cyclopenta[1,2-c]pyrazol-1-yl)acetamide] | – | – | 9.68 | > 500 nM |
| CS(=O)(=O)Nc1nn(CC(F)F)c2c(-n3c([C@H](Cc4cc(F)cc(F)c4)NC(=O)Cn4nc(C(F)F)c5c4C(F)(F)[C@@H]4C[C@H]54)nc4cc(-c5nccc(C(F)F)n5)ccc4c3=O)ccc(Cl)c12 (atropisomer, axis not shown) [Example 132] | – | – | 10.22 | > 500 nM |
| CS(=O)(=O)c1cccnc1-c1ccc2c(=O)n(-c3ccc(Cl)c4c(NS(=O)(=O)C5CC5)nn(CC(F)F)c34)c([C@H](Cc3cc(F)cc(F)c3)NC(=O)Cn3nc(C(F)F)c4c3C(F)(F)[C@@H]3C[C@H]43)nc2c1 (atropisomer, axis not shown; (P)) [Example 95, N—((S)-1-((3P)-3-(4-chloro-3-(cyclopropanesulfonamido)-1-(2,2-difluoroethyl)-1H-indazol-7-yl)-7-(3-(methylsulfonyl)pyridin-2-yl)-4-oxo-3,4-dihydroquinazolin-2-yl)-2-(3,5-difluorophenyl)ethyl)-2-((3bS,4aR)-3-(difluoromethyl)-5,5-difluoro-3b,4,4a,5-tetrahydro-1H-cyclopropa[3,4]cyclopenta[1,2-c]pyrazol-1-yl)acetamide] | – | – | 10.28 | > 500 nM |
| CC(C)c1nccnc1-c1ccc2c(=O)n(-c3ccc(Cl)c4c(NS(C)(=O)=O)nn(C)c34)c([C@H](Cc3cc(F)cc(F)c3)NC(=O)Cn3nc(C(F)F)c4c3C(F)(F)[C@@H]3C[C@H]43)nc2c1 (atropisomer, axis not shown; (P)) [Example 16, N—((S)-1-((3P)-3-(4-chloro-1-methyl-3-(methylsulfonamido)-1H-indazol-7-yl)-7-(3-isopropylpyrazin-2-yl)-4-oxo-3,4-dihydroquinazolin-2-yl)-2-(3,5-difluorophenyl)ethyl)-2-((3bS,4aR)-3-(difluoromethyl)-5,5-difluoro-3b,4,4a,5-tetrahydro-1H-cyclopropa[3,4]cyclopenta[1,2-c]pyrazol-1-yl)acetamide] | – | – | 9.92 | > 500 nM |
